These results are taken from patent US8106055B2, “Substituted amide compounds” (Gruenenthal GmbH, priority 2007, dated 2012).

The inhibition is the relative decrease from the control value, in per cent.

T1 sequence (P35372 whole entry): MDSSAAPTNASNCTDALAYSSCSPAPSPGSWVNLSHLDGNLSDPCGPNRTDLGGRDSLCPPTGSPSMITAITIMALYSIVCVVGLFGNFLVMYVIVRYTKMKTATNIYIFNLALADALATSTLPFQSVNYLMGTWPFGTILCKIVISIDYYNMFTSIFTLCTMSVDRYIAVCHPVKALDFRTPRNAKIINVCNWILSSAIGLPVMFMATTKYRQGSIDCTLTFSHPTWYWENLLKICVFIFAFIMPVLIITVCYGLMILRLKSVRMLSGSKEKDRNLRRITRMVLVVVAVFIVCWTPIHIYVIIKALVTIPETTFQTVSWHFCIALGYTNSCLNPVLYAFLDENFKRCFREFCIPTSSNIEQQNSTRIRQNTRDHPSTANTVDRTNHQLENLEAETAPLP

The assay addresses T1, human μ opiate receptor (Homo sapiens, UniProt P35372).
T1 construct: purchased PerkinElmer Life Sciences, Zaventem, Belgium RB-HOM; host or cells: CHO-K1 cells (membrane preparation)
The experiment in a line: Affinity for the human μ opiate receptor ([3H]-naloxone displacement, CHO-K1 receptor membrane preparation, SPA). The note with it: test concentration of 1 μM; read-out: μ (binding on the μ opioid receptor, % inhibition). The assay is classed as binding. Put shortly:
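SPA, CHO-K1 hμ membranes; 1 nmol/l [3H]-naloxone; Tris-HCl 50 mmol/l + 0.06% BSA; 90 min RT; NSB with 100 μmol/l naloxone; β-counting. Readout: % inhibition of specific binding at 1 μM test compound.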
For the molecule `COc1ccc(S(=O)(=O)N2CCC(OCC(=O)NCC3CCC(C(c4cccs4)N(C)C)CC3)C2)cc1OC` (stereo not shown) [Example 23, 2-(1-(3,4-dimethoxyphenylsulfonyl)pyrrolidin-3-yloxy)-N-((4-((dimethylamino)(thiophen-2-yl)methyl)cyclohexyl)methyl)acetamide], the inhibition at 1 µM was 97%. As for `Cc1cc(C)c(S(=O)(=O)N2CCC(OCC(=O)NCC3CCC(C(c4ccccc4)N(C)C)CC3)C2)c(C)c1` (stereo not shown) [Example 26, N-((4-((dimethylamino)(phenyl)methyl)cyclohexyl)methyl)-2-(1-(mesitylsulfonyl)pyrrolidin-3-yloxy)acetamide], the inhibition at 1 µM came out at 97%.

Consider `Cc1cc(C)c(S(=O)(=O)N2CCC(OCC(=O)NCC3CCC(C(c4cccs4)N(C)C)CC3)C2)c(C)c1` (stereo not shown) [Example 27, N-((4-((dimethylamino)(thiophen-2-yl)methyl)cyclohexyl)methyl)-2-(1-(mesitylsulfonyl)pyrrolidin-3-yloxy)acetamide], for which the inhibition at 1 µM is 97%.

`COc1cc(C)c(S(=O)(=O)N2CCC(CCOCC(=O)NCC3CCC(C(c4ccccc4)N(C)C)CC3)CC2)c(C)c1C` (stereo not shown) [Example 146, N-((4-((dimethylamino)(phenyl)methyl)cyclohexyl)methyl)-2-(2-(1-(4-methoxy-2,3,6-trimethylphenylsulfonyl)piperidin-4-yl)ethoxy)acetamide]: the inhibition at 1 µM came to 88%.
